Here are results for 19 molecules from patent publication US20230227466A1, “SUBSTITUTED THIENOPYRIMIDINES THAT INTERACT WITH THE RAS SUPERFAMILY FOR THE TREATMENT OF CANCERS, INFLAMMATORY DISEASES, RASOPATHIES, AND FIBROTIC DISEASE” (SHY Therapeutics, LLC, priority 2020, published 2023).

Some results are limits rather than exact numbers.

The test system of assay [1] is ERK1/2 phosphorylation in Panc-1 cells. The assay can be described thus: Western ERK1/2 cell-based phosphorylation assay. Details: species or system human. Conditions: at 10 μM, values in brackets < > are activation %, not inhibition. As for the experimental part: Cell lines: Human tumor-derived pancreatic cancer cell line Panc-1 was purchased from American Type Culture Collection and grown in complete DMEM-High Glucose, supplemented with penicillin (100 U/mL), streptomycin (100 μg/mL), and 10% heat-inactivated FBS at 37° C. in a humidified incubator with 5% CO2.
Method: Cells were plated at 350000 cells/well density in a 12-well plate, allowed 3 hours to adhere to the plate, then starved in the appropriate medium in the presence of 0.5% FBS overnight. The small molecules to be tested were added to the cells in the final concentration of 10 μM in the presence of 0.3% DMSO for 6 hours incubation at 37° C. For IC50 value determination, serial dilutions of compounds were added to cells under the same conditions. Next, cells were stimulated with 1.5 ng/ml EGF for 15 minutes then cells were lysed with lysis buffer containing 1% Triton X-100, EDTA, and Halt™ Protease & Phosphatase Inhibitor Cocktail (Thermo Scientific). Protein concentration was assessed by BCA protein assay (Thermo Scientific). Phosphorylation level of ERK1/2 was determined by western blot.
Western blot protocol: Equal amounts of protein (15-50 μg) were separated by SDS-PAGE and transferred to nitrocellulose membranes (Invitrogen by Thermo Fisher Scientific). The membrane was stained with Ponceau S Stain (Boston BioProducts) to verify uniform protein loading. Membranes were blocked with 10% milk and phosphorylation levels of ERK1/2 were assessed by incubating overnight at 4° C. with anti-phospho-p44/42 (Thr202/Tyr204) antibody (Cell Signaling) followed by HRP-conjugated secondary antibody (Jackson Immunoresearch, West Grove, Pa.). Bands were incubated in Amersham ECL Prime Western Blotting Detection Reagent (GE Healthcare) and visualized using the ChemiDoc MP imaging system (Bio-Rad). Protocol for Western AKT cell-based phosphorylation assay

The test system of assay [2] is MIA-PaCa-2 pancreatic cancer cell line (KRAS G12C). The assay can be described thus: Cell proliferation assay (CellTiter 96 Aqueous One). In kind it is cell-based. Particulars: Homo sapiens; for IC50: MIA PaCa-2, MIA PaCa-2; for inhibition at 10 µM: MIA PaCa-2, read-out: % inh cell proliferation (10 μM) in MIA PaCa-2. The gist of the method: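 Percent inhibition of proliferation is derived from MTS absorbance data. Cells seeded at 2000–5000 per well were grown overnight before treatment. Compounds, at 10 μM final or in dilution series, stayed on cells for 2–4 days in medium containing 10% FBS and 0.3% DMSO.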

As usually defined, the IC50 is the concentration needed to halve the response being measured. A high value points to weaker potency.

With `CO[C@@H]1CC[C@H](Nc2nc(-c3nccn3C)nc3sc(-c4ccn(C(C)C)n4)c(C)c23)C1` [Compound 31, 6-(1-Isopropyl-1H-pyrazol-3-yl)-N-((1S,3R)-3-methoxycyclopentyl)-5-methyl-2-(1-methyl-1H-imidazol-2-yl)thieno[2,3-d]pyrimidin-4-amine], the “% inh of ERK1/2 phosphorylation in PANC-1” value (from here on “% inh”) in assay [1] is given as “D (76-100% inhibition)”. For the same molecule, in assay [2], the IC50 was below 1 µM and the inhibition at 10 µM is 76 to 100%.

For the molecule `CO[C@H]1CC[C@@H](Nc2nc(-c3nccn3C)nc3sc(-c4ccn(C(C)C)n4)c(C)c23)C1` [Compound 32, 6-(1-Isopropyl-1H-pyrazol-3-yl)-N-((1R,3S)-3-methoxycyclopentyl)-5-methyl-2-(1-methyl-1H-imidazol-2-yl)thieno[2,3-d]pyrimidin-4-amine], the “% inh” value in assay [1] is “D (76-100% inhibition)”. In addition, in assay [2], the IC50 is below 1 µM and the inhibition at 10 µM is 76 to 100%.

On to `COCCNc1nc(-c2nccn2C)nc2sc(-c3ccn(C(C)C)n3)c(C)c12` [Compound 35, 6-(1-Isopropyl-1H-pyrazol-3-yl)-N-(2-methoxyethyl)-5-methyl-2-(1-methyl-1H-imidazol-2-yl)thieno[2,3-d]pyrimidin-4-amine], for which the “% inh” value in assay [1] is on record as 0 (0% inhibition). Further, in assay [2], the IC50 lay within 5 to 10 µM and the inhibition at 10 µM lay in the range of 76 to 100%.

On to `CO[C@H]1CN(c2nc(-c3nccn3C)nc3sc(-c4ccn(C(C)C)n4)c(C)c23)C[C@H]1OC` [Compound 39, rac-4-((3S,4R)-3,4-Dimethoxypyrrolidin-1-yl)-6-(1-isopropyl-1H-pyrazol-3-yl)-5-methyl-2-(1-methyl-1H-imidazol-2-yl)thieno[2,3-d]pyrimidine], for which the “% inh” value in assay [1] was 0 (0% inhibition). Also, in assay [2], the IC50 lay in the range of 5 to 10 µM and the inhibition at 10 µM lay in the range of 76 to 100%.

Take `CO[C@H]1C[C@@H](Nc2nc(-c3nccn3C)nc3sc(-c4ccn(C(C)C)n4)c(C)c23)C[C@H]1OC` [Compound 42, N-((1r,3R,4S)-3,4-Dimethoxycyclopentyl)-6-(1-isopropyl-1H-pyrazol-3-yl)-5-methyl-2-(1-methyl-1H-imidazol-2-yl)thieno[2,3-d]pyrimidin-4-amine]: in assay [1], the “% inh” value is “B (26-50% inhibition)”. Further, in assay [2], the IC50 lay in the range of 5 to 10 µM and the inhibition at 10 µM is 51 to 75%.

Take `CO[C@H]1C[C@H](Nc2nc(-c3nccn3C)nc3sc(-c4ccn(C(C)C)n4)c(C)c23)C[C@H]1OC` [Compound 43, N-((1s,3R,4S)-3,4-Dimethoxycyclopentyl)-6-(1-isopropyl-1H-pyrazol-3-yl)-5-methyl-2-(1-methyl-1H-imidazol-2-yl)thieno[2,3-d]pyrimidin-4-amine]: the “% inh” value in assay [1] is recorded as “B (26-50% inhibition)”. Besides, in assay [2], the IC50 lay within 5 to 10 µM and the inhibition at 10 µM was 51 to 75%.

As to `Cc1c(-c2ccn(C(C)C)n2)sc2nc(-c3nccn3C)nc(NCCc3nnn[nH]3)c12` [Compound 46, N-(2-(1H-Tetrazol-5-yl)ethyl)-6-(1-isopropyl-1H-pyrazol-3-yl)-5-methyl-2-(1-methyl-1H-imidazol-2-yl)thieno[2,3-d]pyrimidin-4-amine], in assay [1], the “% inh” value is on record as 0 (0% inhibition). Besides, in assay [2], the IC50 was above 10 µM and the inhibition at 10 µM fell in the range of 1 to 25%.

Consider `CO[C@H]1C[C@@H](CNc2nc(-c3nccn3C)nc3sc(-c4ccn(C(C)C)n4)c(C)c23)C1` [Compound 47, 6-(1-Isopropyl-1H-pyrazol-3-yl)-N-(((1s,3s)-3-methoxycyclobutyl)methyl)-5-methyl-2-(1-methyl-1H-imidazol-2-yl)thieno[2,3-d]pyrimidin-4-amine], for which the “% inh” value in assay [1] is recorded as “D (76-100% inhibition)”. Moreover, in assay [2], the IC50 is below 1 µM and the inhibition at 10 µM fell in the range of 76 to 100%.

`CO[C@H]1C[C@H](CNc2nc(-c3nccn3C)nc3sc(-c4ccn(C(C)C)n4)c(C)c23)C1` [Compound 48, 6-(1-Isopropyl-1H-pyrazol-3-yl)-N-(((1r,3r)-3-methoxycyclobutyl)methyl)-5-methyl-2-(1-methyl-1H-imidazol-2-yl)thieno[2,3-d]pyrimidin-4-amine]: in assay [1], the “% inh” value is “D (76-100% inhibition)”. In assay [2], the IC50 is below 1 µM and the inhibition at 10 µM was 76 to 100%.

On to `CO[C@H]1CCCN(c2nc(-c3nccn3C)nc3sc(-c4ccn(C(C)C)n4)c(C)c23)C1` [Compound 49, (S)-6-(1-Isopropyl-1H-pyrazol-3-yl)-4-(3-methoxypiperidin-1-yl)-5-methyl-2-(1-methyl-1H-imidazol-2-yl)thieno[2,3-d]pyrimidine], for which, in assay [1], the “% inh” value is given as “D (76-100% inhibition)”. In assay [2], the IC50 lay within 5 to 10 µM and the inhibition at 10 µM fell in the range of 76 to 100%.

In the case of `CO[C@@H]1CCCN(c2nc(-c3nccn3C)nc3sc(-c4ccn(C(C)C)n4)c(C)c23)C1` [Compound 50, (R)-6-(1-Isopropyl-1H-pyrazol-3-yl)-4-(3-methoxypiperidin-1-yl)-5-methyl-2-(1-methyl-1H-imidazol-2-yl)thieno[2,3-d]pyrimidine], the “% inh” value in assay [1] is “D (76-100% inhibition)”. Moreover, the inhibition at 10 µM in assay [2] is 76 to 100%.

As for `Cc1c(-c2ccn(C(C)C)n2)sc2nc(-c3nccn3C)nc(NC[C@@H]3CCC(=O)N3)c12` [Compound 51], the “% inh” value in assay [1] is 0 (0% inhibition). In addition, in assay [2], the IC50 is above 10 µM and the inhibition at 10 µM came out at 0%.

Turning to `Cc1c(-c2ccn(C(C)C)n2)sc2nc(-c3nccn3C)nc(NC[C@H]3CCC(=O)N3)c12` [Compound 52, (R)-5-(((6-(1-Isopropyl-1H-pyrazol-3-yl)-5-methyl-2-(1-methyl-1H-imidazol-2-yl)thieno[2,3-d]pyrimidin-4-yl)amino)methyl)pyrrolidin-2-one], the “% inh” value in assay [1] is recorded as 0 (0% inhibition). Also, in assay [2], the IC50 was above 10 µM and the inhibition at 10 µM is 1 to 25%.

In the case of `Cc1c(-c2ccn(C(C)C)n2)sc2nc(-c3nccn3C)nc(NCCc3ncc[nH]3)c12` [Compound 53, N-(2-(1H-Imidazol-2-yl)ethyl)-6-(1-isopropyl-1H-pyrazol-3-yl)-5-methyl-2-(1-methyl-1H-imidazol-2-yl)thieno[2,3-d]pyrimidin-4-amine], the “% inh” value in assay [1] is reported as 0 (0% inhibition). In addition, in assay [2], the half-inhibitory concentration (IC50) was 5 to 10 µM and the inhibition at 10 µM was in the range of 76 to 100%.

Regarding `CO[C@H]1CC[C@H](Nc2nc(-c3nccn3C)nc3sc(-c4ccn(C(C)C)n4)c(C)c23)CC1` [Compound 54], the “% inh” value in assay [1] is given as “D (76-100% inhibition)”. In assay [2], the IC50 was below 1 µM and the inhibition at 10 µM lay within 76 to 100%.

Turning to `CO[C@H]1CC[C@@H](Nc2nc(-c3nccn3C)nc3sc(-c4ccn(C(C)C)n4)c(C)c23)CC1` [Compound 55], the “% inh” value in assay [1] is “D (76-100% inhibition)”. For the same molecule, in assay [2], the IC50 was below 1 µM and the inhibition at 10 µM lay in the range of 76 to 100%.

`Cc1c(-c2ccn(C(C)C)n2)sc2nc(-c3nccn3C)nc(NCc3ncc[nH]3)c12` [Compound 57, N-((1H-Imidazol-2-yl)methyl)-6-(1-isopropyl-1H-pyrazol-3-yl)-5-methyl-2-(1-methyl-1H-imidazol-2-yl)thieno[2,3-d]pyrimidin-4-amine]: in assay [1], the “% inh” value is on record as “A (1-25% inhibition)”. Moreover, in assay [2], the IC50 lay in the range of 5 to 10 µM and the inhibition at 10 µM fell in the range of 51 to 75%.

`Cc1c(-c2ccn(C(C)C)n2)sc2nc(-c3nccn3C)nc(NCCc3cn(C)cn3)c12` [Compound 58, 6-(1-Isopropyl-1H-pyrazol-3-yl)-5-methyl-2-(1-methyl-1H-imidazol-2-yl)-N-(2-(1-methyl-1H-imidazol-4-yl)ethyl)thieno[2,3-d]pyrimidin-4-amine]: in assay [1], the “% inh” value is “A (1-25% inhibition)”. Further, in assay [2], the IC50 was 5 to 10 µM and the inhibition at 10 µM lay within 76 to 100%.

As to `Cc1c(-c2ccn(C(C)C)n2)sc2nc(-c3nccn3C)nc(NCc3c[nH]cn3)c12` [Compound 59, N-((1H-Imidazol-4-yl)methyl)-6-(1-isopropyl-1H-pyrazol-3-yl)-5-methyl-2-(1-methyl-1H-imidazol-2-yl)thieno[2,3-d]pyrimidin-4-amine], in assay [1], the “% inh” value is recorded as 0 (0% inhibition). In addition, in assay [2], the IC50 was in the range of 5 to 10 µM and the inhibition at 10 µM lay within 51 to 75%.
